Test results reported in PubChem BioAssay AID330 (DTP/NCI, 2004).
Several values for one entry are separate records, joined by “and”; a condition that tells them apart may be missing. Equal entries are not always repeated. Inconclusive results and toxic doses are left out.

System: P388 leukemia ip, CD2F1 mice, survival T/C
Test: NCI In Vivo Anticancer Drug Screen. Data for tumor model P388 Leukemia (intraperitoneal) in CD2F1 (CDF1) mice
Conditions: endpoint: median survival time, higher = longer survival
Procedure, shortened: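 Mice carrying the transplanted tumor received test compound or vehicle. Survival was recorded in each group, and the value is the treated-group measurement divided by that of the vehicle-treated control group.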

[1] = dose: 60.0 mg/kg/injection, schedule: Q01DX005 (ip), vehicle: saline with Tween-80
[2] = dose: 120.0 mg/kg/injection, schedule: Q01DX005 (ip), vehicle: saline with Tween-80
[3] = dose: 50.0 mg/kg/injection, schedule: Q01DX005 (ip), vehicle: saline with Tween-80
[4] = dose: 100.0 mg/kg/injection, schedule: Q01DX005 (ip), vehicle: saline with Tween-80
[5] = dose: 240.0 mg/kg/injection, schedule: Q01DX005 (ip), vehicle: saline with Tween-80
[6] = dose: 50.0 mg/kg/injection, schedule: Q01DX009 (ip), vehicle: saline with Tween-80
[7] = dose: 100.0 mg/kg/injection, schedule: Q01DX009 (ip), vehicle: saline with Tween-80
[8] = dose: 200.0 mg/kg/injection, schedule: Q01DX009 (ip), vehicle: saline with Tween-80
[9] = dose: 120.0 mg/kg/injection, schedule: Q01DX005 (ip), vehicle: Klucel (hydroxypropylcellulose) (HPC)
[10] = dose: 240.0 mg/kg/injection, schedule: Q01DX005 (ip), vehicle: Klucel (hydroxypropylcellulose) (HPC)
[11] = dose: 15.0 mg/kg/injection, schedule: Q01DX005 (ip), vehicle: saline with Tween-80
[12] = dose: 200.0 mg/kg/injection, schedule: Q01DX005 (ip), vehicle: saline with Tween-80
[13] = dose: 50.0 mg/kg/injection, schedule: Q01DX005 (ip), vehicle: saline
[14] = dose: 100.0 mg/kg/injection, schedule: Q01DX005 (ip), vehicle: saline
[15] = dose: 200.0 mg/kg/injection, schedule: Q01DX005 (ip), vehicle: saline
[16] = dose: 60.0 mg/kg/injection, schedule: Q01DX005 (ip), vehicle: saline
[17] = dose: 120.0 mg/kg/injection, schedule: Q01DX005 (ip), vehicle: saline

CCc1ccccc1NC1=C(Cl)C(=O)c2ccccc2C1=O
T/C [1]: 104 % of control | T/C [2]: 107 % of control

CCCC(CC)(C(=O)Nc1ccc2nc(C)cc(N)c2c1)C(=O)Nc1ccc2nc(C)cc(N)c2c1
T/C [3]: 91 % of control | T/C [4]: 93 % of control

O=C(O)CCc1cccnc1
T/C (dose: 266.0 mg/kg/injection, schedule: Q01DX009 (ip), vehicle: saline with Tween-80): 105 % of control | T/C (dose: 400.0 mg/kg/injection, schedule: Q01DX009 (ip), vehicle: saline with Tween-80): 115 % of control

O=C(c1ccccc1)C(N=Nc1ccccc1)(c1ccccc1)c1ccccc1
T/C [1]: 101 % of control | T/C [2]: 118 % of control | T/C [5]: 100 % of control

CCOC(=O)C12C=CC(=O)NC1(OC)OC(C)C2 (configuration not stated)
T/C (dose: 100.0 mg/kg/injection, schedule: Q01DX001 (ip), vehicle: Klucel (hydroxypropylcellulose) (HPC)): 90 % of control | T/C (dose: 200.0 mg/kg/injection, schedule: Q01DX001 (ip), vehicle: Klucel (hydroxypropylcellulose) (HPC)): 94 % of control | T/C (dose: 400.0 mg/kg/injection, schedule: Q01DX001 (ip), vehicle: Klucel (hydroxypropylcellulose) (HPC)): 93 % of control

COC1/C=C/OC2(C)Oc3c(C)c(O)c4c(O)c(c(/C=N/N5C(C)CN(Cc6ccc(NC(C)=O)cc6)CC5C)c(O)c4c3C2=O)NC(=O)C(C)=C/C=C/C(C)C(O)C(C)C(O)C(C)C(OC(C)=O)C1C (configuration not stated)
T/C (dose: 12.5 mg/kg/injection, schedule: Q01DX009 (ip), vehicle: suspension in saline): 110 % of control | T/C (dose: 25.0 mg/kg/injection, schedule: Q01DX009 (ip), vehicle: saline with Tween-80): 119 % of control | T/C (dose: 25.0 mg/kg/injection, schedule: Q01DX009 (ip), vehicle: suspension in saline): 110 % of control | T/C [6]: 99 % of control | T/C (dose: 50.0 mg/kg/injection, schedule: Q01DX009 (ip), vehicle: suspension in saline): 108 % of control | T/C [7]: 99 % of control and 103 % of control | T/C (dose: 100.0 mg/kg/injection, schedule: Q01DX009 (ip), vehicle: suspension in saline): 99 % of control | T/C [8]: 110 % of control and 119 % of control

COc1cccc2c1C(=O)c1c(O)c3c(c(O)c1C2=O)CC(O)(C(C)=O)CC3OC1CC(NCC2(O)OC(C(=O)NCCCN(C)C)C(O)C2O)C(O)C(C)O1 (configuration not stated)
T/C (dose: 2.5 mg/kg/injection, schedule: Q04DX003 (ip), vehicle: water): 101 % of control | T/C (dose: 5.0 mg/kg/injection, schedule: Q04DX003 (ip), vehicle: water): 109 % of control | T/C (dose: 10.0 mg/kg/injection, schedule: Q04DX003 (ip), vehicle: water): 108 % of control | T/C (dose: 20.0 mg/kg/injection, schedule: Q04DX003 (ip), vehicle: water): 109 % of control | T/C (dose: 40.0 mg/kg/injection, schedule: Q04DX003 (ip), vehicle: water): 109 % of control

CN(C)C(CS(=O)(=O)c1ccccc1)c1ccccc1 (configuration not stated)
T/C (dose: 60.0 mg/kg/injection, schedule: Q01DX005 (ip), vehicle: Klucel (hydroxypropylcellulose) (HPC)): 100 % of control | T/C [9]: 91 % of control | T/C [10]: 91 % of control

O=C(Cn1nnc(N2CCCCC2)n1)N/N=C/c1ccccc1O
T/C (dose: 30.0 mg/kg/injection, schedule: Q01DX005 (ip), vehicle: Klucel (hydroxypropylcellulose) (HPC)): 88 % of control | T/C [9]: 95 % of control | T/C [10]: 95 % of control

Cc1cc2cc3c4c(nnc(NN)c4c2o1)-c1ccccc1CC3
T/C (dose: 3.75 mg/kg/injection, schedule: Q01DX005 (ip), vehicle: saline with Tween-80): 99 % of control | T/C (dose: 7.5 mg/kg/injection, schedule: Q01DX005 (ip), vehicle: saline with Tween-80): 101 % of control | T/C [11]: 99 % of control

CSc1nc(N)c2cnn(C3CCCO3)c2n1 (configuration not stated)
T/C [4]: 102 % of control | T/C [12]: 94 % of control | T/C (dose: 400.0 mg/kg/injection, schedule: Q01DX005 (ip), vehicle: saline with Tween-80): 97 % of control

CN(C)c1cccc2c(Cl)c(Cl)c3cccc(N(C)C)c3c12
T/C [1]: 98 % of control | T/C [2]: 100 % of control | T/C [5]: 99 % of control

C[n+]1c(/C=N/NC(N)=S)ccc2ccccc21
T/C [7]: 118 % of control

CN(C)C1C(=O)C(C(=O)NCNC(C=O)C(O)C(O)C(O)CO)=C(O)C2(O)C(=O)C3=C(O)c4c(O)cccc4C(C)(O)C3CC12 (configuration not stated)
T/C [13]: 100 % of control | T/C [14]: 99 % of control | T/C [15]: 96 % of control

O=C1c2cc3c(cc2C(=O)c2[nH]ncc21)OCO3
T/C [1]: 92 % of control | T/C [2]: 100 % of control | T/C [5]: 96 % of control

CCCCN(CCCC)CCNC(c1ccc(OC)cc1)c1ccc(OC)cc1
T/C [3]: 98 % of control | T/C [4]: 93 % of control | T/C [12]: 96 % of control

Cc1ccc2c(c1)nc(C)c(=O)n2CC1CCCN2CCCC[C@H]12 (some centres not stated)
T/C [11]: 97 % of control | T/C (dose: 30.0 mg/kg/injection, schedule: Q01DX005 (ip), vehicle: saline with Tween-80): 97 % of control | T/C [1]: 97 % of control

Nc1nc(-c2cccnc2)cc(-c2cc(-c3cccnc3)nc(N)n2)n1
T/C [16]: 96 % of control | T/C [17]: 100 % of control

CC(=O)c1cc(C)ccc1S(C)=O (configuration not stated)
T/C (dose: 50.0 mg/kg/injection, schedule: Q01DX005 (ip), vehicle: acetone): 99 % of control | T/C (dose: 100.0 mg/kg/injection, schedule: Q01DX005 (ip), vehicle: acetone): 100 % of control | T/C (dose: 200.0 mg/kg/injection, schedule: Q01DX005 (ip), vehicle: acetone): 100 % of control

CN(C)CCSc1nc2ccccc2o1
T/C [16]: 105 % of control | T/C [17]: 104 % of control

CCOC(=O)C(=CNNCCC#N)C(=O)OCC
T/C [6]: 90 % of control | T/C [7]: 90 % of control | T/C [8]: 95 % of control

FC(F)(F)C1(C(F)(F)F)SC(C(F)(F)F)(C(F)(F)F)S1
T/C [13]: 104 % of control | T/C [14]: 107 % of control | T/C [15]: 104 % of control

CCCCCCCC/C=C\CCCCCCCC(=O)OCCCCCCCCCCCC
T/C (dose: 6.25 mg/kg/injection, schedule: Q01DX012 (ip), vehicle: saline with Tween-80): 100 % of control | T/C (dose: 12.5 mg/kg/injection, schedule: Q01DX012 (ip), vehicle: saline with Tween-80): 104 % of control | T/C (dose: 50.0 mg/kg/injection, schedule: Q01DX012 (ip), vehicle: saline with Tween-80): 100 % of control | T/C (dose: 100.0 mg/kg/injection, schedule: Q01DX012 (ip), vehicle: saline with Tween-80): 98 % of control | T/C (dose: 200.0 mg/kg/injection, schedule: Q01DX012 (ip), vehicle: saline with Tween-80): 101 % of control | T/C (dose: 500.0 mg/kg/injection, schedule: Q01DX012 (ip), vehicle: saline with Tween-80): 106 % of control | T/C (dose: 872.0 mg/kg/injection, schedule: Q01DX012 (ip), vehicle: saline with Tween-80): 97 % of control

CC(=O)NC1=C(O)C2C(c3ccccc3)C(C#N)C(=O)N2C1=O (configuration not stated)
T/C (dose: 100.0 mg/kg/injection, schedule: Q04DX002 (ip), vehicle: saline with Tween-80): 100 % of control | T/C (dose: 200.0 mg/kg/injection, schedule: Q04DX002 (ip), vehicle: saline with Tween-80): 100 % of control | T/C (dose: 400.0 mg/kg/injection, schedule: Q04DX002 (ip), vehicle: saline with Tween-80): 95 % of control

O=C(O)c1cc(-c2ccc(Cl)cc2)nc2cc(Cl)ccc12
T/C [3]: 98 % of control | T/C [4]: 100 % of control

Cn1cnc2cc(NCCCc3ccccc3)c([N+](=O)[O-])cc2c1=O
T/C (dose: 100.0 mg/kg/injection, schedule: Q04DX003 (ip), vehicle: saline with Tween-80): 103 % of control | T/C (dose: 200.0 mg/kg/injection, schedule: Q04DX003 (ip), vehicle: saline with Tween-80): 101 % of control | T/C (dose: 400.0 mg/kg/injection, schedule: Q04DX003 (ip), vehicle: saline with Tween-80): 105 % of control

Cc1ccc(NCC2(/N=C/c3ccccc3)OC(CO)C(O)C2O)cc1 (configuration not stated)
T/C (dose: 266.0 mg/kg/injection, schedule: Q01DX009 (ip), vehicle: Klucel (hydroxypropylcellulose) (HPC)): 150 % of control and 157 % of control | T/C (dose: 400.0 mg/kg/injection, schedule: Q01DX009 (ip), vehicle: Klucel (hydroxypropylcellulose) (HPC)): 170 % of control and 176 % of control

CC1CCC2(CC1C)C(=O)NC(=O)NC2=O (configuration not stated)
T/C (dose: 12.5 mg/kg/injection, schedule: Q04DX003 (ip), vehicle: Klucel (hydroxypropylcellulose) (HPC)): 100 % of control | T/C (dose: 25.0 mg/kg/injection, schedule: Q04DX003 (ip), vehicle: Klucel (hydroxypropylcellulose) (HPC)): 97 % of control | T/C (dose: 50.0 mg/kg/injection, schedule: Q04DX003 (ip), vehicle: Klucel (hydroxypropylcellulose) (HPC)): 105 % of control | T/C (dose: 100.0 mg/kg/injection, schedule: Q04DX003 (ip), vehicle: Klucel (hydroxypropylcellulose) (HPC)): 100 % of control
